This is an account of results in article PMC8624998, “Synthesis and Antiproliferative Evaluation of 3-Chloroazetidin-2-ones with Antimitotic Activity: Heterocyclic Bridged Analogues of Combretastatin A-4” (Pharmaceuticals, 2021).

Where two headings read alike, the source gives them in different places.

For assay [1], the system named is MCF-7 cells. As to the kind of experiment: Lactate dehydrogenase (LDH) assay for cytotoxicity. It counts as cell-based. The conditions noted are these: Homo sapiens, MCF7; MCF-7, compound concentration 10 μM, 24 h; read-out: Lactate Dehydrogenase assay: % cell lysis (cell death). The method, then: The toxicity and selectivity of 10n towards normal cells was investigated in the non-tumourigenic cell line HEK-293T (normal human epithelial embryonic kidney cells). […] The cytotoxic effect of selected 3-chloro-β-lactams 10e, 10f, 10i, 10n and 3,3-dichloro-β-lactams 11e and 11n in MCF-7 cells was initially determined using the lactate dehydrogenase (LDH) assay.
The cytotoxicity of selected compounds was determined using the CytoTox 96 non-radioactive cytotoxicity assay (Promega Corporation, Madison, WI, USA). Briefly, MCF-7 cells were seeded in a 96-well plate (200 μL per well), at a density of 2.5 × 10^4 cells/mL, and incubated for 24 h. The cells were then treated with selected β-lactam compounds as described above for the cell viability assay. […] Supernatant (50 μL) was removed from each well to a 96-well plate. Reconstituted ‘CytoTox 96® Reagent (50 μL) was added to each well and the plate was placed in the dark at 20 °C for 30 min. ‘Stop solution’ (50 μL) was added to each well and the samples were analysed at 490 nm using a Dynatech MR5000 plate reader. The percentage cell death at 10 μM was calculated.

The test system of the next assay is MDA-MB-231 cells. As to the kind of experiment: Cell viability assay, antiproliferative activity. The note with it: Homo sapiens; MDA-MB-231, 72 h; 10e and 11n results from NCI; read-out: Antiproliferative Activity IC50 MDA-MB-231, 72 h. The assay is classed as cell-based. From the text:
Selected β-lactam compounds were next evaluated in the triple negative cell line MDA-MB-231 (Table 4). […] These cancers are difficult to treat since they are generally not responsive to hormone therapies such as the selective oestrogen receptor modulator (SERM) tamoxifen, or aromatase inhibitors such as anastrozole, or to the monoclonal antibody Herceptin, which targets the HER2 receptor. There are fewer treatment options available for TNBC compared with ER+, PR+ and HER2+ breast cancers and the prognosis is poorer. […]. The human breast carcinoma cell line MCF-7 was purchased from the European Collection of Animal Cell Cultures (ECACC). Triple negative breast cancer Hs578T cells and its invasive variant Hs578Ts(i)8 were a kind gift from Dr. Susan McDonnell, School of Chemical and Bioprocess Engineering, University College Dublin. U266 cells were a gift from Dr. Tony McElligott, School of Medicine, St James’s Hospital, Trinity College Dublin. HT-29 cells were purchased from the European Collection of Cell Cultures (originating from a human adenocarcinoma of the colon). The human breast carcinoma cell line MDA-MB-231 and the HL-60 cells derived from a patient with acute myeloid leukaemia were both obtained from ECACC (Salisbury, UK). The SW-480 cells were a kind gift from Dr. Brian Flood, School of Biochemistry and Immunology, Trinity College Dublin. HEK-293T (normal epithelial embryonic kidney cells) were cultured in Dulbecco’s Modified Eagle’s Medium (DMEM) with GlutaMAXTM-I in the absence of non-essential amino acids. Human breast cancer MCF-7 cells and multiple myeloma U266 cells were cultured in Minimum Essential Media (MEM) with GlutaMAX™-I, supplemented with 1% (v/v) non-essential amino acids, 10% 2(v/v) foetal bovine serum (FBS) and 1% (v/v) penicillin/streptomycin 5000 U/mL. MDA-MB-231 cells were maintained in DMEM supplemented with 10% (v/v) foetal bovine serum, 2 mM L-glutamine and 100 μg/mL penicillin/streptomycin (complete medium). Colon cancer HT-29 and SW-480 and triple negative breast cancer Hs578T and its invasive variant Hs578T8i were cultured in DMEM with GlutaMAX™-I, with the same supplement in the absence of non-essential amino acids. Leukaemia HL-60 cancer cells were cultured in Roswell Park Memorial Institute Media (RPMI-1640) with GlutaMAX™-I, supplemented with 10% FCS media, and 100 μg/mL penicillin/streptomycin as above. Cell numbers were monitored using a haemocytometer. Cell culture flasks were incubated in a humidified incubator (5% CO2/95% air) at 37 °C. All cell lines were sub-cultured three times per week with trypsinisation using TrypLE Express (1X) required for adherent cell lines.
. All stock solutions and serial dilution in ethanol/DMSO were stored at -20 °C. All cells were seeded at a density of 2.5 × 10^4 cells/mL in a 96-well plate (200 μL per well). The cells were incubated in a […] atmosphere at 37 °C for 24 h, then treated with test compound (2 μL of stock solutions per 200-microlitre well) in ethanol to obtain a concentration range of 1 nM–200 μM for the study. The plates were then re-incubated for a further 72 h. Control wells contained an equivalent volume of the vehicle ethanol or DMSO (1% v/v). MTT cell viability assay: The culture medium was removed, and the cells were washed with phosphate buffered saline (PBS, […]). MTT (dissolved in PBS, […]) was added to obtain a final concentration of MTT (1 mg/mL). Cells were incubated at 37 °C for 3 h in the dark. Solubilisation was commenced by the addition of DMSO ([…]) and the cells were maintained at 20 °C in the dark for 20 min before reading the absorbance to ensure complete colour diffusion. The absorbance value of control cells (no added compound) was set to 100% cell viability and absorbance versus cell density per well was determined to assess cell viability using Graph-Pad Prism software. […]

For assay [2], the system named is MCF-7 cells. The conditions noted are these: MCF-7, 72 h, previously reported compounds, cited from earlier work.

The term IC50 denotes the midpoint of a concentration-inhibition curve. In the case of `CCOc1ccc([C@H]2[C@H](Cl)C(=O)N2c2cc(OC)c(OC)c(OC)c2)cc1` (relative stereo) [Compound 10f], in the assay with MCF-7 cells [1], the cytotoxicity at 10 µM was 4%. Also, the IC50 with MDA-MB-231 cells is 78 ± 8 nM; with MCF-7 cells [2] (footnote g), 130 ± 17 nM.

For the compound `COc1ccc(C2N(c3cc(OC)c(OC)c(OC)c3)C(=O)C2(Cl)Cl)cc1` (stereo not drawn) [Compound 11e], in the assay with MCF-7 cells [1], the cytotoxicity at 10 µM was 10%. In addition, the IC50 in the assay on MDA-MB-231 cells is 297 ± 40 nM; with MCF-7 cells [2] (footnote g), 119 ± 12 nM.

On to `COc1ccc(C2C(Cl)C(=O)N2c2cc(OC)c(OC)c(OC)c2)cc1Cl` (stereo not drawn) [Compound 10o], for which the IC50 with MCF-7 cells [2] (footnote h) is 433 ± 50 nM.

For `COc1ccc(C2N(c3cc(OC)c(OC)c(OC)c3)C(=O)C2(Cl)Cl)cc1C` (stereo not drawn) [Compound 11o], in the assay on MCF-7 cells [2] (footnote h), the IC50 is 747 ± 60 nM.

Turning to `COc1cc(N2C(=O)C(Cl)C2c2ccc(SC)cc2)cc(OC)c1OC` (stereo not drawn) [Compound 10i], the cytotoxicity at 10 µM in the assay on MCF-7 cells [1] is 3%. For the same compound, the concentration for half-maximal inhibition (IC50) in the assay with MCF-7 cells [2] (footnote g) was 73 ± 4 nM.

As to `CCOc1ccc([C@@H]2N(c3cc(OC)c(OC)c(OC)c3)C(=O)C2(Cl)Cl)cc1` [Compound 11f], the IC50 in the assay with MDA-MB-231 cells is 389 ± 50 nM; in the assay with MCF-7 cells [2] (footnote g), 164 ± 15 nM.
